Test results reported in patent US4966915A, “L-dopa derivatives or their acid addition salts, process for producing same and their use” (priority 1987, dated 1990).

Tests used:
[1] = Acute toxicity, intraperitoneal administration (mice); assay type: in vivo, ddY-strain male mice; settings: for mortality: up to 1 week, n=5
Excerpt: (2) Intraperitoneal administration
Each of the test drugs was suspended in a sterilized physiological saline and intraperitoneally administered to ddY-strain male mice (body weight 24 to 29 g, n=5), and a mortality up to 1 week after administration was observed.

[2] = Acute toxicity, oral administration (mice); assay type: in vivo, ddY-strain male mice; settings: mortality up to 1 week; for LD50 at 168 h: mouse, in vivo
Excerpt: Each of the test drugs was suspended in a 0.5% sodium carboxymethylcellulose solution containing 0.1% Tween 80 and orally administered to each of ddY-strain male mice (body weight 24 to 31 g, n=5), and a mortality up to 1 week after administration was observed. Toxicity of test compounds (Compounds A and B) was extremely low. The LD50 value was 6 g/kg or more in both cases.

[3] = Blood levels of L-dopa after intravenous administration of drugs (rats); assay type: in vivo, SD-strain male rats
Description: FIG. 7 illustrates change with time of a blood level of L-dopa in intravenously administering Compound A (o) and L-dopa (.cndot.) to rats.
Measuring blood levels of L-dopa after intravenous administration of drugs (rats)
Seven to eight week-old SD-strain male rats (n=3) were previously fasted for 18 hours. Twenty milligrams of L-dopa as a control drug or the equimolar amount of Compound A was dissolved in a concentration of 10 mg/ml in a physiolosical saline containing 50% propylene glycol, and the resulting solution was intravenously administered to the rats at a dose of 10 mg eq./kg, calculated as L-dopa. Immediately after administration, or 5, 15, 30, 45, 60, 90, 120, 150, 180 or 240 minutes after administration, 120 μl of blood was collected through a carotid cannula intubated in advance three days before the test using a heparin-treated glass capillary. The blood was treated as in Test Example 1 and then measured for blood levels of L-dopa.

[4] = Concentrations of L-dopa in the lumen and tissue of the small intestine by an in situ ligating loop method (rats); assay type: in vivo, male rats; settings: jejunal loop, with 0.4 mg carbidopa
Excerpt: FIG. 8 illustrates change with time of amounts of Compound A (Δ) and L-dopa (o) after injection of Compound A, and amount of L-dopa (.cndot.) after injection of L-dopa in the lumen of the small intestine of rats according to an in situ ligating loop method.
FIG. 9 illustrates change with time of amounts of Compound A (Δ) and L-dopa (o) after injection of Compound A, and amount of L-dopa (.cndot.) after injection of L-dopa in the tissue of the small intestine of rats according to an in situ ligating loop method.
Measuring concentrations of L-dopa in the lumen and tissue of the small intestine by an in situ ligating loop method (rats)
Eight week-old male rats (n=3) were fasted overnight before the test, and then under ether anesthesia, were incised at the abdomen. An acute loop of 8 cm length was ligated in the jejunum. Compound A (1.47 mg) or 1.00 mg of L-dopa as a control drug was suspended in 0.5 ml of 0.5% sodium carboxymethylcellulose together with 0.4 mg of carbidopa, and the suspension was injected into the loop. The loop was returned in the abdominal cabity and the cut portion was then sewn. After a fixed time, the loop was taken out again and the content in the loop was well washed with a ice-cooled physiological saline. […] In the resulting solutions, the concentration of L-dopa was determined as in Test Example 1 and the concentration of Compound A as follows, respectively. […]

[5] = cited from earlier work
[6] = concluded from conversion to L-dopa

Structure (SMILES)	mortality ([1]; 1800 mg/kg)	toxicity ([1]; mortality up to 1 week)	toxicity [2]	LD50 at 168 h [2] [mg/kg]	hydrolysis to L-dopa in the systemic circulation ([3]; 10 mg eq./kg as L-dopa)	conversion ratio to L-dopa ([3]; 10 mg eq./kg as L-dopa, estimated)	bioavailability [3, 6]	toxicity [3, 6]	amount of L-dopa in the lumen (washing liquid) and tissue (homogenate) of the small intestine ([4]; 1.47 mg Compound A vs 1.00 mg L-dopa)	concentration of L-dopa in the lumen and tissue of the small intestine [4]	mortality ([1]; 1250 mg/kg)	blood level of L-dopa ([5]; human, in vivo)	appearance of dyskinesias after administration of L-dopa ([5]; patients, chronic L-dopa therapy) [h]	elimination of L-dopa from blood ([5]; patients)
CC(C)(C)C(=O)Oc1ccc(C[C@H](N)C(=O)O)cc1O [Compound A, 4-O-pivaloyl-L-dopa]	no case of death was observed	very low	extremely low	≥ 6000	rapidly and completely hydrolyzed to L-dopa	about 100%	high bioavailability	low toxicity	retained for a longer time with less fluctuation than that after administration of L-dopa	kept low	–	–	–	–
CC1(C(=O)Oc2ccc(C[C@H](N)C(=O)O)cc2O)CC1 [Compound B, 4-O-(1-methylcyclopropanecarbonyl)-L-dopa]	–	–	extremely low	≥ 6000	–	–	–	–	–	–	–	–	–	–
N[C@@H](Cc1ccc(O)c(O)c1)C(=O)O [L-dopa]	all the test mice were dead	–	–	3200	–	–	–	–	–	–	two of five mice were dead	rapidly increases and falls	1 to 2	rapid elimination
